Experiment [1] concerns the target Interferon-induced, double-stranded RNA-activated protein kinase (Homo sapiens) (UniProt P19525). Put plainly: Selectivity interaction (LanthaScreen Eu Kinase Binding Assay) EUB0001632a EIF2AK2. Conditions: at 10 µM. On the technique in general: TR-FRET usually uses a lanthanide donor and a delayed reading to cut background.
Experiment [2] concerns the target Endothelin-1 receptor (Homo sapiens) (UniProt P25101). The experiment in a line: Selectivity interaction (Panel of non-epigenetic targets (kinases, GPCRs, ion channels, and transporters, Eurofins) ) EUB0000271b EDNRA. Conditions: at 1 µM.
The target of experiment [3] is T1, Mitogen-activated protein kinase 13 (Homo sapiens) (UniProt O15264).
T1 sequence (whole entry): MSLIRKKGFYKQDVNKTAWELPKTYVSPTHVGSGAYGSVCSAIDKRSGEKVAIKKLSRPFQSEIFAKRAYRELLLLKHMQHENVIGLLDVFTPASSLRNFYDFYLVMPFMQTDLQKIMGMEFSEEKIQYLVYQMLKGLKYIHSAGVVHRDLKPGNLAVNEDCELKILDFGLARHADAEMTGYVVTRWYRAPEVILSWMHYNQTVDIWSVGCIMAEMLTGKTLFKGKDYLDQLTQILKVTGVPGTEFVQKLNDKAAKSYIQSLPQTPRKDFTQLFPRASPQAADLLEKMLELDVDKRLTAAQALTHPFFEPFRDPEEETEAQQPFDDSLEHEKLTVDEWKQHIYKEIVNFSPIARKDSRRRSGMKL
The experiment in a line: Selectivity interaction (Kinase panel (DSF assay)) EUB0001558a MAPK13.

Experiment [4] concerns the target T2, Cyclin-G-associated kinase (Homo sapiens) (UniProt O14976).
T2 sequence (whole entry): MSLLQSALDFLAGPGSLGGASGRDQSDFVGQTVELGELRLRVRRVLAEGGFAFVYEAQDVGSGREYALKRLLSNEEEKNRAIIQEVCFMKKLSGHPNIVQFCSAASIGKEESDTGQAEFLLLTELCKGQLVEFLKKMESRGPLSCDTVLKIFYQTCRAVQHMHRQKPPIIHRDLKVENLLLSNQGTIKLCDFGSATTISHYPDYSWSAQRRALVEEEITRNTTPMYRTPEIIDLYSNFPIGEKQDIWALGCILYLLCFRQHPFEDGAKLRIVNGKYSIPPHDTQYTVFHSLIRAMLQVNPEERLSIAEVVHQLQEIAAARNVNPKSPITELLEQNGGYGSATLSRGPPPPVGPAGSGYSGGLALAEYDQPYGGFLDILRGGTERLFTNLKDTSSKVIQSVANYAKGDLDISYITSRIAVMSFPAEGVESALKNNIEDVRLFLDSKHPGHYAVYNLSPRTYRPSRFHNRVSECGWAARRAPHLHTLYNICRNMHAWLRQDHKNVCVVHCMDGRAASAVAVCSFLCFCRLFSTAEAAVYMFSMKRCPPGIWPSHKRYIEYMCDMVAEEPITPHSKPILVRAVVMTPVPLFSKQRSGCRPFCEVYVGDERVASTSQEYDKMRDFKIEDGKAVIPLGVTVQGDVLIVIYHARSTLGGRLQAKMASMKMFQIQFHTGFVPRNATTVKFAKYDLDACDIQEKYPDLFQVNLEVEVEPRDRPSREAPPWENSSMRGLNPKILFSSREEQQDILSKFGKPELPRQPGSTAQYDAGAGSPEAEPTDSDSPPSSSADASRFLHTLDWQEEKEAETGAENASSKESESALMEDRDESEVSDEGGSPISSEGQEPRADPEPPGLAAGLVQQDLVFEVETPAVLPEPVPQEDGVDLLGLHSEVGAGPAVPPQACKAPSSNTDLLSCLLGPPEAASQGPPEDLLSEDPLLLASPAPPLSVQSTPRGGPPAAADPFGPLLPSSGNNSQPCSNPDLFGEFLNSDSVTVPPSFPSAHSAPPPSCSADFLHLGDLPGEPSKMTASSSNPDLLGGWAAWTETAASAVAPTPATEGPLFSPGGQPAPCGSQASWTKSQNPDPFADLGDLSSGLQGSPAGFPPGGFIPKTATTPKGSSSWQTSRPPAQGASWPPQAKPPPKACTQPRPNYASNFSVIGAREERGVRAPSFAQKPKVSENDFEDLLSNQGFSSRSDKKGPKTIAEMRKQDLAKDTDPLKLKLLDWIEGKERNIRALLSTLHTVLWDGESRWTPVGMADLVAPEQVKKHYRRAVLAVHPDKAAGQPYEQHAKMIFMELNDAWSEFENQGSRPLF
The experiment in a line: Selectivity interaction (DSF assay) EUB0000229b GAK. A general note: In DSF a fluorescence change marks the thermal transition of the protein.

Experiment [5] concerns the target Epithelial discoidin domain-containing receptor 1 (Homo sapiens) (UniProt Q08345). Put plainly: Selectivity interaction (KinomeScan (DiscoverX)) EUB0001079a DDR1. Particulars: at 1 µM.
Experiment [6] concerns the target Serine/threonine-protein kinase 10 (Homo sapiens) (UniProt O94804). The experiment in a line: Selectivity interaction (ActivX KiNativ screen (kinase selectivity in THP-1 cell lysates)) EUB0000639a STK10. The class given is subcellular. Particulars: lysate, at 5 µM.
The target of experiment [7] is Dual specificity protein kinase CLK3 (Homo sapiens, UniProt P49761). Put plainly: Selectivity interaction (ActivX KiNativ screen (kinase selectivity in THP-1 cell lysates)) EUB0000639a CLK3. In kind it is subcellular. Particulars: lysate.
Sequence of Dual specificity protein kinase CLK3 (P49761 whole entry, looked up): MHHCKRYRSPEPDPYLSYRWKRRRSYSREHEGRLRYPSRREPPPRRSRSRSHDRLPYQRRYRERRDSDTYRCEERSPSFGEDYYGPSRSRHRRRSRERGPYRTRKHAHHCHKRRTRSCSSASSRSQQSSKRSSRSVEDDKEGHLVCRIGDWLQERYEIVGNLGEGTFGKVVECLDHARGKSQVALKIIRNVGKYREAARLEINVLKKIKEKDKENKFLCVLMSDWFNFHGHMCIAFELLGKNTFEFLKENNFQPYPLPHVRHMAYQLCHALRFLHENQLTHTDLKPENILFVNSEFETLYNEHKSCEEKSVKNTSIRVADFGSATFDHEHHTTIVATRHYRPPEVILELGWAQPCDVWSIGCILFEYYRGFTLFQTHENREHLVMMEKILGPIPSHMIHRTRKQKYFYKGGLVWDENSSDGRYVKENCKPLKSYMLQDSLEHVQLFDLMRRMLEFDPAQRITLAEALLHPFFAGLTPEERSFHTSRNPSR
The target of experiment [8] is T3, Interleukin-1 receptor-associated kinase 3 (Homo sapiens) (UniProt Q9Y616).
T3 sequence (whole entry): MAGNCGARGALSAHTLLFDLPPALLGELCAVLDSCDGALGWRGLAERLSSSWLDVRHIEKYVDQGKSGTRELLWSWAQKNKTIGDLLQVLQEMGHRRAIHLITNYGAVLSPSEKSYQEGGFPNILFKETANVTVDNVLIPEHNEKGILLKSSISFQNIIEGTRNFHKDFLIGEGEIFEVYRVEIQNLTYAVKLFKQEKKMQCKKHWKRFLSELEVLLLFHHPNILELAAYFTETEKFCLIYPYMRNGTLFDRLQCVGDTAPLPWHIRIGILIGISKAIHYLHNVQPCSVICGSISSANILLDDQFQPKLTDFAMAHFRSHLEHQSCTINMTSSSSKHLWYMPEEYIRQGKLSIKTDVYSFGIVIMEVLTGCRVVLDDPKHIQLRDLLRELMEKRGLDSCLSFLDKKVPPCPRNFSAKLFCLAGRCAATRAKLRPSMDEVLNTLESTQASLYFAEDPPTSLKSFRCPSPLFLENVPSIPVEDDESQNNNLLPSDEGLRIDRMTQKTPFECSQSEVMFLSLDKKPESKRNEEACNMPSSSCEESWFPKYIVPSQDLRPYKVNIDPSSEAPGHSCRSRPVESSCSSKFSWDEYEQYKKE
Put plainly: Selectivity interaction (ActivX KiNativ screen (kinase selectivity in THP-1 cell lysates)) EUB0000639a IRAK3. Particulars: lysate, at 0.04 µM. In kind it is subcellular.

Sequence of Epithelial discoidin domain-containing receptor 1 (Homo sapiens) (Q08345 whole entry, the tested form may be a part): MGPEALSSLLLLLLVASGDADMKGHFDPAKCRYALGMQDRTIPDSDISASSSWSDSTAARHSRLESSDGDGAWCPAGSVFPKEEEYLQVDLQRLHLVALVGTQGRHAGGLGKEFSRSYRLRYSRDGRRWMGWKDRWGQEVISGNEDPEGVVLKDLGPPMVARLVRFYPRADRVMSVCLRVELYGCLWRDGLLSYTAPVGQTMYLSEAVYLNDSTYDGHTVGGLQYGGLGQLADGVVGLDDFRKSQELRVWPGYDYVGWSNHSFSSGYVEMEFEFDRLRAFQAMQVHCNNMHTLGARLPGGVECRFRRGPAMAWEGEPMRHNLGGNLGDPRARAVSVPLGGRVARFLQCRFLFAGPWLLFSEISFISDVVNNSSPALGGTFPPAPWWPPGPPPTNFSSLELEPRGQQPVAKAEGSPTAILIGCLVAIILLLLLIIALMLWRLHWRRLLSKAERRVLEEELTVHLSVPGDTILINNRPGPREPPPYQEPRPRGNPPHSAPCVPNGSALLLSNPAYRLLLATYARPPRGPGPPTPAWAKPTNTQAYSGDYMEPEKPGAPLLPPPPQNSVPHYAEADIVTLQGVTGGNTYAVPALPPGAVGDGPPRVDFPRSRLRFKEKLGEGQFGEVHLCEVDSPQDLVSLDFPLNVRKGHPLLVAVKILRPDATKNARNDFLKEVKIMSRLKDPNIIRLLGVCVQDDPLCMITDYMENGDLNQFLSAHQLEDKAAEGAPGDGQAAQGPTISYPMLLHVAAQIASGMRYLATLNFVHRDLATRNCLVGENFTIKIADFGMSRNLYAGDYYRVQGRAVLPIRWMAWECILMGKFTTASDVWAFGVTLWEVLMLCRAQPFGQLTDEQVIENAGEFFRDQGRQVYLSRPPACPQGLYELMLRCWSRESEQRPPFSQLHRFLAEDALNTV
Sequence of Endothelin-1 receptor (Homo sapiens) (P25101 whole entry): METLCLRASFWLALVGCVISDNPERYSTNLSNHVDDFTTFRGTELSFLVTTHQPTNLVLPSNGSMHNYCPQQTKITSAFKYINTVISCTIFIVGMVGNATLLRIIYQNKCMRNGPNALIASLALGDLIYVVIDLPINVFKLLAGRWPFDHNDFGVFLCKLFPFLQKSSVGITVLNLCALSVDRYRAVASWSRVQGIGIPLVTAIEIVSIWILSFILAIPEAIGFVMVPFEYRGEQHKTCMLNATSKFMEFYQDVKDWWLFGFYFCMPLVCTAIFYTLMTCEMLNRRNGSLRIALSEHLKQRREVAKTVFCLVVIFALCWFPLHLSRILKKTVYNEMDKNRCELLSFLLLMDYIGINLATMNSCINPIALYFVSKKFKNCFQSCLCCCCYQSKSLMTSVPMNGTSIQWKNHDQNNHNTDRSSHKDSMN
Sequence of Interferon-induced, double-stranded RNA-activated protein kinase (Homo sapiens) (P19525 whole entry): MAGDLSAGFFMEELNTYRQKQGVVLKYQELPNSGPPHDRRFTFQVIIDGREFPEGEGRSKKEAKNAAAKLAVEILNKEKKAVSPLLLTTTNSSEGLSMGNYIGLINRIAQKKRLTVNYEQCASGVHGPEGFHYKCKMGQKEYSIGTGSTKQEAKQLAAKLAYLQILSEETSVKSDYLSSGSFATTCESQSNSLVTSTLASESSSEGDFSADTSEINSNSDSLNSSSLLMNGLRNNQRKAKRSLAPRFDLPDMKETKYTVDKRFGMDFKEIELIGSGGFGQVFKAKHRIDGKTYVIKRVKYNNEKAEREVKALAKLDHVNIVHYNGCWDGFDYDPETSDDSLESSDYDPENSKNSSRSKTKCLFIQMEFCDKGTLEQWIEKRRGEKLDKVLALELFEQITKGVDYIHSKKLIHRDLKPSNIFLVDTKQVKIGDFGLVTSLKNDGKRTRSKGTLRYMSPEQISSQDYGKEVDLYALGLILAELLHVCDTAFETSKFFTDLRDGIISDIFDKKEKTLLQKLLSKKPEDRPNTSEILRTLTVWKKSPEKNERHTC
Sequence of Serine/threonine-protein kinase 10 (Homo sapiens) (O94804 whole entry, looked up): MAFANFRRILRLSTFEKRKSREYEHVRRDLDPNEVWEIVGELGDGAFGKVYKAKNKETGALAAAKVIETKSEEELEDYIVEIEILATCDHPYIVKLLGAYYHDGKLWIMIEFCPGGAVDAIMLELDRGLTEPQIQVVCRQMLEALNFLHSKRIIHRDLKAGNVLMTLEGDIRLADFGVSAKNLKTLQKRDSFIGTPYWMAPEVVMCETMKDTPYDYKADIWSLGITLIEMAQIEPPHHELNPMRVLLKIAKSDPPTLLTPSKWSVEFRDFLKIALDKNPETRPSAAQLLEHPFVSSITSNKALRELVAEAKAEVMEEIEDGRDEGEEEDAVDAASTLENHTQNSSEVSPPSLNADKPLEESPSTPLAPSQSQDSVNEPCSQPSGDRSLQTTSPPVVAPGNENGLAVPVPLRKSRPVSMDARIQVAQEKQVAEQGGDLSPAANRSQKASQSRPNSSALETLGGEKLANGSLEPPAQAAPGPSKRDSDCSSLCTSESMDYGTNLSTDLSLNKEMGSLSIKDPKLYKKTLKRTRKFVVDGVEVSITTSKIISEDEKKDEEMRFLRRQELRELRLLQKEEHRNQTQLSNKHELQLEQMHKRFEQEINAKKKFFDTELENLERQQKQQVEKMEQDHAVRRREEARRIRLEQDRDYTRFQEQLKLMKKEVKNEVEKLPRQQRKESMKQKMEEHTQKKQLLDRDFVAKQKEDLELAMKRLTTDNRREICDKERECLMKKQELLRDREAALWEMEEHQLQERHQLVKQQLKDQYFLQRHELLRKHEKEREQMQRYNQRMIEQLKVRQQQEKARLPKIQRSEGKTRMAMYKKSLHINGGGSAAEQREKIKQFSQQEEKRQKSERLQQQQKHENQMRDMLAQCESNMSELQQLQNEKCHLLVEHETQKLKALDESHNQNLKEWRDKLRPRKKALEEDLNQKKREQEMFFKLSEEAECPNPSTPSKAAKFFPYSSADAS

In the case of `Cn1cc(-n2cnc3c(NCc4nc5cc(Cl)c(Cl)cc5[nH]4)nc(N4CCOCC4)nc32)cn1`, the % of inhibition in experiment [1] is -80.6%.

With `Cc1cc(C)cc([C@@H]2c3cc(C)ccc3NC(=O)CN2C(=O)c2ccc(Br)s2)c1`, in experiment [2], the % of inhibition was -24%.

Consider `CC(C)(O)[C@H](F)CN1Cc2cc(NC(=O)c3cnn4cccnc34)c(N3CCOCC3)cc2C1=O`, for which the dTM in experiment [3] is -0.3 K.

In experiment [4], `COc1cc(N(C)c2ccnc3ccc(C(F)(F)F)cc23)cc(OC)c1OC` came in with a dTm of -0.3 K.

For `Nc1cnc(N2CCc3cc(S(=O)(=O)Nc4c(F)cc(Cl)cc4F)cc(N4CCCC4=O)c32)nc1` [TP-020n], in experiment [5], the % of control was determined as 100%.

As to `CC[C@@H]1[C@H](F)C(=O)N[C@@H]1COc1nccc2cc(C(N)=O)c(OC)cc12` [ZIMLOVISERTIB], the % of inhibition is -16.6% in experiment [6]; 8.2% in experiment [7] (at 0.01 µM); 15.5% in experiment [7] (at 0.04 µM); 0.7% in experiment [7] (at 0.2 µM); 5.8% in experiment [7] (at 1 µM); 12.1% in experiment [7] (at 5 µM). In experiment [8], the % of inhibition was -1.7%.

The values are drawn from ChEMBL document CHEMBL5465560, “Selectivity Literature for EUbOPEN Chemogenomic Library” (2024).
